Reference: patent US4146631A, “Benzamide derivatives” (May & Baker Limited, priority 1976, dated 1979)

Key:
[1] = system: passive cutaneous anaphylactic (PCA) reaction; assay: Passive cutaneous anaphylactic (PCA) reaction, reagin-allergen combination, in rats; type: in vivo; details: Rattus norvegicus; for ED100: intravenous, just before injection of allergen, read-out: ED100 (intravenous dose which produces 100% inhibition of the PCA reaction); for inhibition in vivo at 100 mg/kg: oral dose of 100 mg/kg; for inhibition in vivo at 100 mg/kg / ED50: thirty minutes before intravenous allergen; for ED50: oral, read-out: ED50 (oral dose which produces 50% inhibition of the PCA reaction)
From the text: In pharmacological tests the benzamide derivatives of general formula I suppress the passive cutaneous anaphylactic (PCA) reaction resulting from combination of tissue-fixed reaginic antibodies with the appropriate antigenic material (termed reagin-allergen combination) and carried out in an essentially similar manner to that described by Ogilvie [Nature (Lond.), (1964), 204, 91-92; Immunology, (1967), 12, 112-131]. In the method used to test these compounds sera were obtained from rats which had been infected with larvae of the nematode parasite Nippostrongylus brasiliensis; as a result of the parasitic infestation reaginic antibodies are elaborated in the host mammal and are found in sera removed from such animals. Other, non-infected, rats received intradermal injections of appropriate dilutions of such sera and were then given the allergenic material along with Evans' blue dye intravenously forty-eight hours later.
The allergenic material consisted of supernatant fluid after centrifugation of homogenates of adult Nippostrongylus brasiliensis worms which had been macerated in Tyrode's solution. The sites of PCA reactions were visualised by the effusion of Evan's blue dye from the circulation into those areas as a result of increased capillary permeability caused by the release of biologically-active substances from cells where reagin-allergen combination had occurred. The new compounds when given intravenously to the rats just before injection of allergen, or administered orally thirty minutes before intravenous injection of allergen, were able to prevent the development of the PCA reaction, as shown below in Table I, Table II and Table III.

[2] = Acute oral toxicity in mice; details: mouse, in vivo, highest dose used 1000 mg/kg, read-out: LD50 (doses lethal to 50% of mice tested)
From the text: Mice were each treated orally with one of the compounds of formula I, and they were observed daily until there had been at least 3 consecutive days without any deaths. The LD50 figures obtained (doses lethal to 50% of mice tested) are shown below in Table IV, expressed in mg/kg animal body weight.
The symbol ">" means "greater than" in this specification. Where the LD50 is said to be ">1000," a more precise estimation of the LD50 was not possible because the numbers of deaths was too small, even at the highest dose used, 1000 mg/kg.

[3] = Acute intravenous toxicity in mice; details: mouse, in vivo
From the text: Mice were each treated intravenously with an aqueous solution of the triethanolamine salt or sodium salt of one of the compounds of formula I, and they were observed until there had been at least 3 consecutive days without any deaths. The LD50 figures obtained (doses lethal to 50% of mice tested) are shown below in Table V, expressed in mg/kg animal body weight. In Table V, "Na" means that the sodium salt was used and "T" means that the triethanolamine salt was used.
The aqueous solutions were prepared as follows:
A mixture of the test compound and water was treated gradually with triethanolamine until complete solution occurred. The solution was then diluted with water to a concentration of test compound of either 1% w/v or 2% w/v.
The test compound was dissolved in aqueous sodium hydroxide (1N) and the solution was brought to pH 8 by treatment with hydrochloric acid. The solution was then diluted with water to a concentration of test compound of 2% w/v.
Various volumes of these solutions were then administered to the mice.

[4] = sodium salt (Na), 2% w/v test solution
[5] = triethanolamine salt (T), 2% w/v test solution

Row | Structure (SMILES) | ED100 [1] [mg/kg] | inhibition in vivo at 100 mg/kg [1] [%] | ED50 [1] [mg/kg] | LD50 [2] [mg/kg] | LD50 [3, 4] [mg/kg] | LD50 [3, 5] [mg/kg] | LD50 ([3]; triethanolamine salt (T), 1% w/v solution for lower doses, 2% w/v for higher doses) [mg/kg]
1 | O=C(Nc1nnn[nH]1)c1cc(Cl)ccc1O [Compound AD, 5-chloro-2-hydroxy-N-(tetrazol-5-yl)benzamide] | 1 | 94 | 13 | > 1000 | 480 |  | 
2 | CC(=O)c1ccc(O)c(C(=O)Nc2nnn[nH]2)c1 [Compound AV, 5-acetyl-2-hydroxy-N-(tetrazol-5-yl)benzamide] | 10 | 16 |  | > 1000 |  | 645 | 
3 | O=C(Nc1nnn[nH]1)c1cc([N+](=O)[O-])ccc1O [AO, 2-hydroxy-5-nitro-N-(tetrazol-5-yl)benzamide] | 0.2 | 48 | 100 | > 1000 |  | 870 | 
4 | Cc1ccc(O)c(C(=O)Nc2nnn[nH]2)c1 [AG, 2-hydroxy-5-methyl-N-(tetrazol-5-yl)benzamide] | 1 |  |  | > 1000 | 670 |  | 
5 | CCCC(=O)c1cc(CC)cc(C(=O)Nc2nnn[nH]2)c1O [Compound CG, 3-butyryl-5-ethyl-2-hydroxy-N-(tetrazol-5-yl)benzamide] | 0.1 | 55 | 2.2 | > 1000 |  |  | 270
6 | Cc1cccc(C(=O)Nc2nnn[nH]2)c1O [AH, 2-hydroxy-3-methyl-N-(tetrazol-5-yl)benzamide] | 0.5 | 82 | 10 | > 1000 |  | 770 | 
7 | CC(=O)Nc1ccc(C(=O)Nc2nnn[nH]2)c(O)c1 [BB, 4-acetylamino-2-hydroxy-N-(tetrazol-5-yl)benzamide] | 1 | 26 |  | > 1000 |  | 645 | 
8 | CC(C)(C)c1ccc(C(=O)Nc2nnn[nH]2)c(O)c1 [BA, 4-tert-butyl-2-hydroxy-N-(tetrazol-5-yl)benzamide] | 10 | 37 |  | > 1000 |  | 230 | 
9 | CCCc1cc(C(C)=O)c(O)c(C(=O)Nc2nnn[nH]2)c1 [Compound CD, 3-acetyl-2-hydroxy-5-propyl-N-(tetrazol-5-yl)benzamide] | 0.1 | 64 |  | > 1000 |  | 250 | 
10 | CC(=O)c1cc([N+](=O)[O-])cc(C(=O)Nc2nnn[nH]2)c1O [Compound CS, 3acetyl-2-hydroxy-5-nitro-N-(tetrazol-5-yl)benzamide] | 0.1 | 54 |  | > 1000 |  | 780 | 
11 | CCC(C)c1cc(C(C)=O)c(O)c(C(=O)Nc2nnn[nH]2)c1 (stereo not drawn) [Compound BY, 3-acetyl-5-sec-butyl-2-hydroxy-N-(tetrazol-5-yl)benzamide] | 0.5 | 43 | 1.8 | > 1000 |  | 180 | 
12 | CC(=O)c1c(C)c(C)cc(C(=O)Nc2nnn[nH]2)c1O [BX, 3-acetyl-2-hydroxy-4,5-dimethyl-N-(tetrazol-5-yl)benzamide] | 20 |  |  | > 1000 |  | 870 | 
13 | Cc1cc(C(=O)Nc2nnn[nH]2)c(O)c(C(=O)c2ccccc2)c1 [CR, 3-benzoyl-2-hydroxy-5-methyl-N-(tetrazol-5-yl)benzamide] | 1 | 22 |  | > 1000 |  | 350 | 
14 | CC(=O)c1cc(C(=O)Nc2nnn[nH]2)c(O)c(C(C)=O)c1O [AW, 3,5-diacetyl-2,4-dihydroxy-N-(tetrazol-5-yl)benzamide] | 5 | 84 |  | > 1000 |  | 710 | 
15 | CC(=O)c1cc(Cl)cc(C(=O)Nc2nnn[nH]2)c1O [Compound AU, 3-acetyl-5-chloro-2-hydroxy-N-(tetrazol-5-yl)benzamide] | 2 | 71 | 1.8 | > 1000 |  | 245 | 
16 | COc1ccc(O)c(C(=O)Nc2nnn[nH]2)c1 [AP, 2-hydroxy-5-methoxy-N-(tetrazol-5-yl)benzamide] | 0.5 | 75 | 100 | > 1000 | 950 |  | 
